Test results taken from US12492181B2, “Gem-disubstituted piperidine melanocortin subtype-2 receptor (MC2R) antagonists and uses thereof” (Crinetics Pharmaceuticals, Inc., priority 2019, dated 2025).

Each molecule was assayed against T1, hMC2 receptor (crude hMC2R membranes from CRE-bla-CHO-K1 cells stably expressing hMC2 receptor and hMRAP accessory protein) (Homo sapiens, UniProt Q01718) (assay: hMC2 membrane binding assay ([125I]ACTH (1-39) Tyr23, SPA)). Conditions: displacement of 0.2 nM [125I]ACTH (1-39) Tyr23 from hMC2R membranes, 1.5 hours at room temperature; read-out: MC2R binding potency.
T1 construct: crude membrane fractions
T1 sequence (Q01718 whole entry): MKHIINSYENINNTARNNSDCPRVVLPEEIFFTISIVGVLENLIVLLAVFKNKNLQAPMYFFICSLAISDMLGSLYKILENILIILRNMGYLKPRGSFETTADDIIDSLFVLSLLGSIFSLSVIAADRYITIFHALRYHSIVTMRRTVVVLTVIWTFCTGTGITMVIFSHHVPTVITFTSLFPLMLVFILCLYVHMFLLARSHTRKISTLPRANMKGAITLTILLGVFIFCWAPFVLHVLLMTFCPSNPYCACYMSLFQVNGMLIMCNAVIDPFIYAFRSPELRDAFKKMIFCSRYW
T1 sequence (Q8TCY5 whole entry partner): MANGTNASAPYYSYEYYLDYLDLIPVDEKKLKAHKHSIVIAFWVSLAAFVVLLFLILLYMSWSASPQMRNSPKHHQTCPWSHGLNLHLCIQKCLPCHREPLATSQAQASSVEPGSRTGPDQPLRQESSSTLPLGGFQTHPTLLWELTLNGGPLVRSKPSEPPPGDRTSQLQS
In short: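 Ki values come from non-linear regression of SPA scintillation counts, with compounds displacing [125I]ACTH(1-39) Tyr23. Membranes come from CRE-bla-CHO-K1 cells stably expressing hMC2 receptor together with hMRAP. They are preincubated with WGA-coated PVT SPA beads in 50 mM HEPES pH 7.4 with 0.20% BSA, Mg2+, Ca2+ and protease inhibitors.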

Row | Ki [nM] | Structure (SMILES)
1 | < 10 | CCOc1ncccc1-c1ccc(C2(C(=O)N[C@H]3CCN(C)C3)CCN(c3ccc(C(F)F)cc3C#N)CC2)cn1 [Compound 1-37, 1-[2-cyano-4-(difluoromethyl)phenyl]-4-{2′-ethoxy-[2,3′-bipyridin]-5-yl}-N-[(3S)-1-methylpyrrolidin-3-yl]piperidine-4-carboxamide]
2 | 10 to 100 | CN1CC[C@@H](NC(=O)C2(c3ccc(-c4ccc(C#N)n4C)nc3)CCN(c3ccc(C(F)(F)F)cc3C#N)CC2)C1 [Compound 1-153, 4-[6-(5-cyano-1-methyl-1H-pyrrol-2-yl)pyridin-3-yl]-1-[2-cyano-4-(trifluoromethyl)phenyl]-N-[(3R)-1-methylpyrrolidin-3-yl]piperidine-4-carboxamide]
3 | < 10 | CCOc1ncccc1-c1ccc(C2(C(=O)N[C@@H](C)CNC)CCN(c3ccc(Cl)cc3Cl)CC2)cn1 [Compound 1-322, 1-(2,4-dichlorophenyl)-4-{2′-ethoxy-[2,3′-bipyridin]-5-yl}-N-[(2S)-1-(methylamino)propan-2-yl]piperidine-4-carboxamide]
4 | < 10 | CN1CC[C@H](NC(=O)C2(c3ccc(-c4cccn4C)nc3)CCN(c3ccc(C(F)(F)F)cc3C#N)CC2)C1 [Compound 1-100, 1-[2-cyano-4-(trifluoromethyl)phenyl]-4-[6-(1-methyl-1H-pyrrol-2-yl)pyridin-3-yl]-N-[(3S)-1-methylpyrrolidin-3-yl]piperidine-4-carboxamide]
5 | < 10 | COc1ccccc1-c1ncc(C2(C(=O)NCCN(C)C)CCN(c3ccc(C(F)(F)F)cc3Cl)CC2)cc1F [Compound 1-286, 1-[2-chloro-4-(trifluoromethyl)phenyl]-N-[2-(dimethylamino)ethyl]-4-[5-fluoro-6-(2-methoxyphenyl)pyridin-3-yl]piperidine-4-carboxamide]
6 | < 10 | CNC[C@H](C)NC(=O)C1(c2ccc(-c3cccn3C)nc2)CCN(c2ccc(C(F)(F)F)cc2C#N)CC1 [Compound 1-316, 1-[2-cyano-4-(trifluoromethyl)phenyl]-4-[6-(1-methyl-1H-pyrrol-2-yl)pyridin-3-yl]-N-[(2S)-1-(methylamino)propan-2-yl]piperidine-4-carboxamide]
7 | < 10 | Cc1cscc1-c1ccc(C2(C(=O)N[C@@H]3CCN(C)C3)CCN(c3ccc(C(F)(F)F)cc3C#N)CC2)cn1 [Compound 1-138, 1-[2-cyano-4-(trifluoromethyl)phenyl]-N-[(3R)-1-methylpyrrolidin-3-yl]-4-[6-(4-methylthiophen-3-yl)pyridin-3-yl]piperidine-4-carboxamide]
8 | < 10 | C[C@@H](CN(C)C)NC(=O)C1(c2ccc(-c3cccn3C)nc2)CCN(c2ccc(C(F)(F)F)cc2F)CC1 [Compound 1-297, N-[(2S)-1-(dimethylamino)propan-2-yl]-1-[2-fluoro-4-(trifluoromethyl)phenyl]-4-[6-(1-methyl-1H-pyrrol-2-yl)pyridin-3-yl]piperidine-4-carboxamide]
9 | < 10 | COc1ncccc1-c1ncc(C2(C(=O)N[C@H]3CCN(C)C3)CCN(c3ccc(C(F)(F)F)nc3C#N)CC2)cc1F [Compound 1-133, 1-[2-cyano-6-(trifluoromethyl)pyridin-3-yl]-4-{3-fluoro-2′-methoxy-[2,3′-bipyridin]-5-yl}-N-[(3S)-1-methylpyrrolidin-3-yl]piperidine-4-carboxamide]
10 | 10 to 100 | CN1CC[C@H](NC(=O)C2(c3ccc(-c4ncoc4C4CC4)nc3)CCN(c3ccc(C(F)(F)F)cc3C#N)CC2)C1 [Compound 1-182, 1-[2-cyano-4-(trifluoromethyl)phenyl]-4-[6-(5-cyclopropyl-1,3-oxazol-4-yl)pyridin-3-yl]-N-[(3S)-1-methylpyrrolidin-3-yl]piperidine-4-carboxamide]
11 | < 10 | CCOc1ccccc1-c1ccc(C2(NC(=O)C3CN(C)C3)CCN(c3ccc(C(F)(F)F)cc3C#N)CC2)cn1 [Compound 2-35, N-{1-[2-cyano-4-(trifluoromethyl)phenyl]-4-[6-(2-ethoxyphenyl)pyridin-3-yl]piperidin-4-yl}-1-methylazetidine-3-carboxamide]
